# Assays:
# RET = RET (Homo sapiens, UniProt P07949); assay: HTRF method for testing the inhibitory activity of compounds against RET; assay type: biochemical; conditions: IC50 by nonlinear regression, read-out: RET kinase activity
# Description: (a) In Vitro Screening Experiment-HTRF Method for Testing the Inhibitory Activity of Compounds Against RET Experimental Procedure: 1. […] 2. The test compound (5 mM stock solution) was diluted 5 folds to 1 mM with 100% dimethyl sulfoxide; the compound was diluted into 10 concentrations at an equal ratio of 1:3 in a 384-well dilution plate. 3. 0.2 μL of the serially diluted compound was added to a 384-well plate using an Echo 550 pipetting system, 2 replicate wells for each concentration, and the final concentration of dimethyl sulfoxide was 0.5% (v/v). […] 6. […] The reaction solution was centrifuged at 1000 g for 30 s, and then sealed, and incubated at room temperature for 30 min. 8. […] 10. […] 11. […] IC50 was calculated with software GraphPad 6.0 by fitting inhibition values and logarithms of compound concentrations to a nonlinear regression (dose response−variable slope).
# Ba/F3-KIF5B-RET cell = biological target: T1, Ba/F3-KIF5B-RET cell (Homo sapiens, UniProt P07949); assay: CellTiter-Glo luminescence assay for inhibitory activity against Ba/F3-KIF5B-RET cell; assay type: cell-based; conditions: Ba/F3-KIF5B-RET cells, 72 h
# T1 construct: fused on or other part: P33176 (Kinesin-1 heavy chain)
# T1 sequence (P07949 whole entry, stated change not applied, the tested form may be a part): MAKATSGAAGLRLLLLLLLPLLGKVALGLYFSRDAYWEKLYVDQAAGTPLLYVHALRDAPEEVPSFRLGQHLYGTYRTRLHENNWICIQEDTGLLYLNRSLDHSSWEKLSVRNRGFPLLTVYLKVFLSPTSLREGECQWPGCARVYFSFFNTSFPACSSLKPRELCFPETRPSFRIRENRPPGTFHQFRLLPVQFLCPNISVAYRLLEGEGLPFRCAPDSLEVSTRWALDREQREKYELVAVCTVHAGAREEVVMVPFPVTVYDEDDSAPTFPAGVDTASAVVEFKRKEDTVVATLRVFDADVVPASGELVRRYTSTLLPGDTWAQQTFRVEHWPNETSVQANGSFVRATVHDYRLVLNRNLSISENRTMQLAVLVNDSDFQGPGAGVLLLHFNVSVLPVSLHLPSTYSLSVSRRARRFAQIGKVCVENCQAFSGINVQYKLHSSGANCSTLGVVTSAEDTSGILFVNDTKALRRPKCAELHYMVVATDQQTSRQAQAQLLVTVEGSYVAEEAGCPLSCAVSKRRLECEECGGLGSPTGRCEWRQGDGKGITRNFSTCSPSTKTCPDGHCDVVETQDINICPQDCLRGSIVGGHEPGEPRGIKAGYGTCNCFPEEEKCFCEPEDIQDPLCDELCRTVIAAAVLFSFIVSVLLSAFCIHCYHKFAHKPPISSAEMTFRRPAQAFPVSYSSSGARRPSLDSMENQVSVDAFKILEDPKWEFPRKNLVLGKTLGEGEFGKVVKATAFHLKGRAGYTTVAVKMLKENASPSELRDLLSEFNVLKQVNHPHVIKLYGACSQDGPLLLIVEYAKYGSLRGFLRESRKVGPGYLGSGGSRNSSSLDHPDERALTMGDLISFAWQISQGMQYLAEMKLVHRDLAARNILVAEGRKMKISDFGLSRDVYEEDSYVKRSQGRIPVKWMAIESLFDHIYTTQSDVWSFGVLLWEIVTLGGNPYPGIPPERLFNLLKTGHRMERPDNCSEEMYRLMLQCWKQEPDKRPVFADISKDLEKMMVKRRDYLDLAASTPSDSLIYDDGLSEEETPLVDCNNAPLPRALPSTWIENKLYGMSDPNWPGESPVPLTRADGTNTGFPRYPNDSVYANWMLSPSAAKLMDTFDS
# Text: (c) In Vitro Screening Experiment—CellTiter-Glo Luminescence Assay for Testing the Inhibitory Activity of Compounds Against Ba/F3-KIF5B-RET Cell Experimental Procedure: 1. The mammalian cell expression vector containing human KIF5B-RET cDNA was introduced into Ba/F3 cells using the Neon® transfection system method, and the surviving clones screened by puromycin were subjected to cell growth inhibitory function experiments and Western blotting to verify cell lines with stable and high expression of RET. 2. […] 3. The test compound (5 mM stock) was diluted 2.5 folds to 2 mM with 100% dimethyl sulfoxide; and the compound was diluted into 10 concentrations at an equal ratio of 1:3 in a 384-well dilution plate. 4. […] 6. […] 7. By fitting the data with XLFit 5.0 based on the parameters formula, the IC50 value was calculated as: Y=Bottom+(Top−Bottom)/(1+10^((Log IC50−X)*HillSlope)).
# VEGFR2 = VEGFR2 (Homo sapiens, UniProt P35968); assay: HTRF method for testing the inhibitory activity of compounds against VEGFR2; assay type: biochemical; conditions: IC50 by nonlinear regression, read-out: VEGFR2 kinase activity
# Chain of VEGFR2 (P35968 20-1356, species assumed): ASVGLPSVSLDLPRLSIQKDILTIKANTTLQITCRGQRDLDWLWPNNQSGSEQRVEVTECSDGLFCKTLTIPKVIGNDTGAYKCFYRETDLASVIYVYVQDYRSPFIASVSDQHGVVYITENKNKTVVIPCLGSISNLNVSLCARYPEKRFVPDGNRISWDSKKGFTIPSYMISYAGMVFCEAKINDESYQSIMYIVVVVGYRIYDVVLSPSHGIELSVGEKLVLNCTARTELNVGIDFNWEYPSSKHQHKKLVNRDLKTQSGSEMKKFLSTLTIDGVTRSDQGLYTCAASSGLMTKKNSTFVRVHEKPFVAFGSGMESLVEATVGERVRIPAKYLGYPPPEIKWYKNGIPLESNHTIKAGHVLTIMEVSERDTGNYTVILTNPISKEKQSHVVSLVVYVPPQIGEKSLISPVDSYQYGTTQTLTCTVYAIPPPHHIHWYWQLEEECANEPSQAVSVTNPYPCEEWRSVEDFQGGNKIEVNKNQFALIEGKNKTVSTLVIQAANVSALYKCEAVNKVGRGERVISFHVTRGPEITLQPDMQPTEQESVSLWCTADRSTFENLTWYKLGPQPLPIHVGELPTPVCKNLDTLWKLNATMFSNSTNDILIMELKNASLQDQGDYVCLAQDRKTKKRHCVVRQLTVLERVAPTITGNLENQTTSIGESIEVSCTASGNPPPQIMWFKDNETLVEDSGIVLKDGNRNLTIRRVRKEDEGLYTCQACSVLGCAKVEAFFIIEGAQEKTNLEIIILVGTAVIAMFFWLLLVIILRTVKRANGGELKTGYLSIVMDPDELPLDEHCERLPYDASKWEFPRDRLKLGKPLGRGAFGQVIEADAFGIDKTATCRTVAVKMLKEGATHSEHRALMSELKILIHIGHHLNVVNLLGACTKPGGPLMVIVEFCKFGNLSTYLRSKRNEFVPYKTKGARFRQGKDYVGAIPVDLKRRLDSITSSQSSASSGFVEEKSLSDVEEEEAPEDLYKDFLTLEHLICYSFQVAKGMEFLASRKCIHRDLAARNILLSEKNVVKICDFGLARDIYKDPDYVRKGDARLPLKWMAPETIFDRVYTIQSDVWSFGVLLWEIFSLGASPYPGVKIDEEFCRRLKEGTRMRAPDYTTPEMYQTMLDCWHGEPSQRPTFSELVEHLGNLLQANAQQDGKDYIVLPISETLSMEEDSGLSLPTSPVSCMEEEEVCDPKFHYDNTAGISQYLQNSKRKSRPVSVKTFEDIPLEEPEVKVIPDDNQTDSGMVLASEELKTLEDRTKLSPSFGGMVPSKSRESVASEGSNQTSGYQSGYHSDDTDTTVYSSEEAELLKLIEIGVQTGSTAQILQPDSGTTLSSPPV
# Description: (b) In Vitro Screening Experiment—HTRF Method for Testing the Inhibitory Activity of Compounds Against VEGFR2 Experimental Procedure: 1. […] The test compound (5 mM stock solution) was diluted 5 folds to 1 mM with 100% dimethyl sulfoxide; the compound was diluted into 10 concentrations at an equal ratio of 1:3 in a 384-well dilution plate. 3. […] 6. […] The reaction solution was centrifuged at 1000 g for 30 s, and then sealed, and incubated at room temperature for 40 min. 8. […] 10. […] 11. […] 12. IC50 was calculated with software GraphPad 6.0 by fitting inhibition values and logarithms of compound concentrations to a nonlinear regression (dose response−variable slope).
# Chain of RET (P07949 29-1114): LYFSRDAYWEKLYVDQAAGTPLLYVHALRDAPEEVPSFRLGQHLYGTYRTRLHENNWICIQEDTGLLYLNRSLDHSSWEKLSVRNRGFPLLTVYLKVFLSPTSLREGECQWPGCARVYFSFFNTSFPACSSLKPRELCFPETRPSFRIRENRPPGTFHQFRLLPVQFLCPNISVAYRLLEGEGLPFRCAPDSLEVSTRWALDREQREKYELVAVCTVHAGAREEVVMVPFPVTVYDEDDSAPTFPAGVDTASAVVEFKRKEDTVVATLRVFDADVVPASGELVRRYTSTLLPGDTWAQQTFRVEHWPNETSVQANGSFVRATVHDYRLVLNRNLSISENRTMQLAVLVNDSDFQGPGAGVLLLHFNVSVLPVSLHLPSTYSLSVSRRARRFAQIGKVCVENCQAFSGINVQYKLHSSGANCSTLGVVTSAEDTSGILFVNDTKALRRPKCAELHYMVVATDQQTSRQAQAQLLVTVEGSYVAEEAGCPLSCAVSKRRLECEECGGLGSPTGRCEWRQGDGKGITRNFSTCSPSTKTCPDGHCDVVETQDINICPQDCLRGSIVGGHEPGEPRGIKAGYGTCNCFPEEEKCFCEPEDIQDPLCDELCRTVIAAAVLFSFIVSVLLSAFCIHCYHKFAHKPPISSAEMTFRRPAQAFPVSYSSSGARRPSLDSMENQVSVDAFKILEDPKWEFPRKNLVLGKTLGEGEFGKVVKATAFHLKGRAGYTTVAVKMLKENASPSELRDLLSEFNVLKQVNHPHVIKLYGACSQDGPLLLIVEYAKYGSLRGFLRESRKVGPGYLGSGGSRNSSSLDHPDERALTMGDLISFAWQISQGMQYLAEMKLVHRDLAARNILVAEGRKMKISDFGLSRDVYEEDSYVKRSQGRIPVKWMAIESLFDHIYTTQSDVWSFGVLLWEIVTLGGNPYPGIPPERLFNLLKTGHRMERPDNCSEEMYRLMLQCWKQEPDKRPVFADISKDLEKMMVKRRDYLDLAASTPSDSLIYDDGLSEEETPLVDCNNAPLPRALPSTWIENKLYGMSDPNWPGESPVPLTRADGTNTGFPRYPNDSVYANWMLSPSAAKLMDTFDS
IC50 (RET) [nM],GI50 (Ba/F3-KIF5B-RET cell) [nM],IC50 (VEGFR2) [nM],SMILES
19.6,145,116,"CC(C)(O)COc1cc(-c2ccc(NCc3ccc(-c4cccnc4)nc3)nc2)c2c(C#N)cnn2c1 [Compound 9, 4-(6-(([2,3′-bipyridyl]-5-ylmethyl)amino)pyridin-3-yl)-6-(2-hydroxy-2-methylpropoxy)pyrazole[1,5-a]pyridine-3-carbonitrile]"
0.34,13.9,7.37,"CC(C)(O)COc1cc(-c2ccc(NCc3ccc(-n4cc(F)cn4)nc3)nc2)c2c(C#N)cnn2c1 [Compound 1, 4-(6-(((6-(4-fluoro-1H-pyrazol-1-yl)pyridin-3-yl)methyl)amino)pyridin-3-yl)-6-(2-hydroxy-2-methylpropoxy)pyrazolo[1,5-a]pyridine-3-carbonitrile]"
1.67,104,156,"CC(C)Nc1cc(-c2ccc(N(C)[C@@H](C)c3ccc(-n4cc(F)cn4)nc3)nc2)c2c(C#N)cnn2c1 [Compound 50, (S)-4-(6-((1-(6-(4-fluoro-1H-pyrazol-1-yl)pyridin-3-yl)ethyl)(methyl)amino)pyridine-3-yl)-6-(isopropylamino)pyrazolo[1,5-a]pyridine-3-carbonitrile]"
9.4,68.5,170,"CC(C)(O)COc1cc(-c2ccc(NCc3ccc(N4CCCC4=O)nc3)nc2)c2c(C#N)cnn2c1 [Compound 8, 6-(2-hydroxy-2-methylpropoxy)-4-(6-((6-(2-oxopyrrolidin-1-yl)pyridin-3-yl)methylamino)pyridine-3-yl)pyrazolo[1,5-a]pyridine-3-carbonitrile]"
0.18,12,0.31,C[C@H](Nc1ccc(-c2cc(OC[C@H]3CNCCO3)cn3ncc(C#N)c23)cn1)c1ccc(-n2cc(F)cn2)nc1 [Compound 4]
1.55,119,128,"C[C@@H](c1ccc(-n2cc(F)cn2)nc1)N(C)c1ccc(-c2cc(OCC(F)F)cn3ncc(C#N)c23)cn1 [Compound 34, (S)-4-(6-((1-(6-(4-fluoro-1H-pyrazol-1-yl)pyridin-3-yl)ethyl)(methyl)amino)pyridine-3-yl)-6-(2,2-difluoroethoxy)pyrazolo[1,5-a]pyridine-3-carbonitrile]"
0.5,42.8,26.5,"C[C@@H](c1ccc(-n2cccn2)nc1)N(C)c1ccc(-c2cc(OCC(C)(C)O)cn3ncc(C#N)c23)cn1 [Compound 58, (S)-4-(6-((1-(6-(1H-pyrazol-1-yl)pyridin-3-yl)ethyl)(methyl)amino)pyridin-3-yl)-6-(2-hydroxy-2-methylpropoxy)pyrazolo[1,5-a]pyridine-3-carbonitrile]"
0.47,5.02,4.14,"CCNc1cc(-c2ccc(N(C)[C@@H](C)c3ccc(-n4cc(F)cn4)nc3)nc2)c2c(C#N)cnn2c1 [Compound 51, (S)-4-(6-((1-(6-(4-fluoro-1H-pyrazol-1-yl)pyridin-3-yl)ethyl)(methyl)amino)pyridine-3-yl)-6-(ethylamino)pyrazolo[1,5-a]pyridine-3-carbonitrile]"
3.79,380,> 5000,"COCOc1cc(-c2ccc(N(C)[C@@H](C)c3ccc(-n4cc(F)cn4)nc3)nc2)c2c(C#N)cnn2c1 [Compound 55, (S)-4-(6-((1-(6-(4-fluoro-1H-pyrazol-1-yl)pyridin-3-yl)ethyl)(methyl)amino)pyridine-3-yl)-6-(methoxymethoxy)pyrazolo[1,5-a]pyridine-3-carbonitrile]"
0.73,13.6,80.5,"C[C@@H](c1ccc(-n2cc(F)cn2)nc1)N(C)c1ccc(-c2cc(OCC3(O)CC3)cn3ncc(C#N)c23)cn1 [Compound 46, (S)-4-(6-((1-(6-(4-fluoro-1H-pyrazolyl)pyridin-3-yl)ethyl)(methyl)amino)pyridin-3-yl)-6-((1-hydroxycyclopropyl)methoxy)pyrazolo[1,5-a]pyridine-3-carbonitrile]"
0.54,14.7,61.1,"C[C@@H](c1ccc(-n2cc(F)cn2)nc1)N(C)c1ccc(-c2cc(N3CCC4(CC3)COC4)cn3ncc(C#N)c23)cn1 [Compound 25, (S)-4-(6-((1-(6-(4-fluoro-1H-pyrazol-1-yl)pyridin-3-yl)ethyl)(methyl)amino)pyridine-3-yl)-6-(2-oxo-7-azaspiro[3.5]nonan-7-yl)pyrazolo[1,5-a]pyridine-3-carbonitrile]"
0.245,7.4,33,"C[C@@H](c1ccc(-n2cc(F)cn2)nc1)N(C)c1ccc(-c2cc(N3CCOCC3)cn3ncc(C#N)c23)cn1 [Compound 26, (S)-4-(6-((1-(6-(4-fluoro-1H-pyrazol-1-yl)pyridin-3-yl)ethyl)(methyl)amino)pyridine-3-yl)-6-morpholinopyrazolo[1,5-a]pyridine-3-carbonitrile]"
0.25,13.5,10.1,C[C@@H](c1ccc(-n2cc(F)cn2)nc1)N(C)c1ccc(-c2cc(OCCO)cn3ncc(C#N)c23)cn1 [Compound 20]
0.98,11.6,43.9,CCCNc1cc(-c2ccc(N(C)[C@@H](C)c3ccc(-n4cc(F)cn4)nc3)nc2)c2c(C#N)cnn2c1 [Compound 60]
> 500,1120,2480,CN(C(=O)c1ccc(N2CCCC2)nc1)c1ccc(-c2cc(OCC(C)(C)O)cn3ncc(C#N)c23)cn1 [Compound 64]
0.4,40,135,"C[C@@H](c1ccc(-n2cc(F)cn2)nc1)N(C)c1ccc(-c2cc(OCC(C)(C)C#N)cn3ncc(C#N)c23)cn1 [Compound 18, (S)-6-(2-cyano-2-methylpropoxy)-4-(6-((1-(6-(4-fluoro-1H-pyrazol-1-yl)pyridine-3-yl)ethyl)(methyl)amino)pyridin-3-yl)pyrazolo[1,5-a]pyridine-3-carbonitrile]"
12.5,613,110,Cc1cn(-c2ccc(CNc3ccc(-c4cc(OCC(C)(C)O)cn5ncc(C#N)c45)cn3)cn2)cn1 [Compound 11]
1.25,30.7,> 5000,"C[C@@H](c1ccc(-n2cc(F)cn2)nc1)N(C)c1ccc(-c2cc(NCC3CC3)cn3ncc(C#N)c23)cn1 [Compound 49, (S)-6-((cyclopropylmethyl)amino)-4-(6-((1-(6-(4-fluoro-1H-pyrazol-1-yl)pyridin-3-yl)ethyl)(methyl)amino)pyridin-3-yl)pyrazolo[1,5-a]pyridine-3-carbonitrile]"
0.58,10.4,2.95,"CC[C@H](Nc1ccc(-c2cc(OCC(C)(C)O)cn3ncc(C#N)c23)cn1)c1ccc(-n2cc(F)cn2)nc1 [Compound 15, (S)-4-(6-((1-(6-(4-fluoro-1H-pyrazol-1-yl)pyridin-3-yl)propyl)amino)pyridin-3-yl)-6-(2-hydroxy-2-methylpropoxy)pyrazolo[1,5-a]pyridine-3-carbonitrile]"
1.85,1030,176,C[C@@H](c1ccc(N2CCCC2)nc1)N(C)c1ccc(-c2cc(OCC(C)(C)O)cn3ncc(C#N)c23)cn1 [Compound 62]
12.8,75.5,107,CC(C)(O)COc1cc(-c2ccc(NCc3ccc(N4CCOCC4)nc3)nc2)c2c(C#N)cnn2c1 [Compound 12]

# From US12552785B2, “Pyrazolo[1,5-α]pyridine derivative, preparation method therefor, and composition and use thereof” (SHENZHEN ZHONGGE BIOLOGICAL TECHNOLOGY CO., LTD., priority 2020, dated 2026)
